The values below are quoted from earlier work in patent US20110171165A1 (priority 2008, published 2011).

The series deals with δ receptors (Cavia porcellus, UniProt A0A286XTF2). The note with it: read-out: affinity for δ receptors; guinea-pig brain membranes.
Sequence of δ receptors (A0A286XTF2 1-366): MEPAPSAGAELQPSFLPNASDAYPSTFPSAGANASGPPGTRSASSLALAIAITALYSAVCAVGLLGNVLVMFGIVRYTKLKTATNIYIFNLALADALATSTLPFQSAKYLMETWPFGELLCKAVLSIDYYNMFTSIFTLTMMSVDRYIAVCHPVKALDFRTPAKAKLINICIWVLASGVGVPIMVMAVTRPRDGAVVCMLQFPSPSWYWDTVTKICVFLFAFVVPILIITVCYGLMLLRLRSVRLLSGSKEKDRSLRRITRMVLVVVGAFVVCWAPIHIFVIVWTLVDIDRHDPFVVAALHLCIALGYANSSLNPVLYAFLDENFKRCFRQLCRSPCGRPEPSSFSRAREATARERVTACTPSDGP

On to `CSCC[C@H](NC(=O)[C@H](Cc1ccccc1)NC(=O)CNC(=O)CNC(=O)[C@@H](N)Cc1ccc(O)cc1)C(=O)O` [OGF, Tyr-Gly-Gly-Phe-Met], for which the Ki is 0.9 nM.
